According to the NIST ThermoML archive (doi:10.1021/je049789+):
Numbers after ± are expanded uncertainties.

Conditions: Liquid, Closed cell (Static) method

SMILES | vapor or sublimation pressure (258.15 K) | vapor or sublimation pressure (273.15 K) | vapor or sublimation pressure (293.15 K)
FCF [difluoromethane] | 488.1 ± 2.6 kPa | 814 ± 3.3 kPa | 1474.6 ± 4.8 kPa
COC [dimethyl ether] | 152.9 ± 2.1 kPa | 266.8 ± 2.2 kPa | 509.3 ± 2.7 kPa
